Entries after “also recorded” stand apart in the source; their conditions may differ.
Key:
alpha2A (h) = biological target: T1, alpha2A (h) (Homo sapiens, UniProt P08913); experiment: Radioligand binding alpha2A (h) (antagonist radioligand), [^3H]RX 821002, CHO cells
T1 construct: expressed in transfected cells; host or cells: CHO cells
T1 sequence (P08913 1-465): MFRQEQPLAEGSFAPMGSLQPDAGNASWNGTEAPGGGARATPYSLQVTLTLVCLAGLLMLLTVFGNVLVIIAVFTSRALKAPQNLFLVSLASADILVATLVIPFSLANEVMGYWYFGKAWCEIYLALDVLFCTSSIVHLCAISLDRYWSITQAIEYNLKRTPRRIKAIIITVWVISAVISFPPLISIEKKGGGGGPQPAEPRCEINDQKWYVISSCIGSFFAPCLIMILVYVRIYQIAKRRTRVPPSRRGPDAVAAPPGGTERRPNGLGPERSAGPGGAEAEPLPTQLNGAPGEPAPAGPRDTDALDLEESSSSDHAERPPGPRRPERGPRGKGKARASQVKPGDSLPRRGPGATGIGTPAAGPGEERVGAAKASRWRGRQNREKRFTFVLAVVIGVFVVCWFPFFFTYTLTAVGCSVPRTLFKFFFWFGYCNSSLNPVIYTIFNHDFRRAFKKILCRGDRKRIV
Procedure: (§1) Methods—Binding Assays: In vitro binding assays were performed using human recombinant receptors expressed in mammalian cell lines. Receptors were expressed in either HEK-293 or CHO cells depending on the target, and assay conditions (radioligand, concentration, nonspecific competitor, temperature, and incubation time) were optimized for each receptor. All assays were conducted in triplicate, and specific binding was quantified by scintillation counting as the detection method for each listed assay.
(§2) Specific binding was expressed as a percentage of control-specific binding, and percent inhibition was calculated using the formula in Ex. 8 above. Half-maximal inhibitory concentrations (IC50) were determined by non-linear regression analysis of the inhibition curves using the Hill equation (see Ex. 8). Inhibition constants (Ki) were calculated using the Cheng-Prusoff equation (see Ex. 8). KD values used in these calculations had been previously established for each receptor under the assay conditions (see Table 6). Data analysis was performed using software developed at Cerep and validated against SigmaPlot 4.0 for Windows.

[1] = biological target: T2, Potassium Channel hERG (human) (Homo sapiens, UniProt Q12809); experiment: Radioligand binding Potassium Channel hERG (human), [^3H]Dofetilide, HEK-293 cells; conditions: Potassium Channel hERG(h) ([3H] Dofetilide)
T2 construct: expressed in transfected cells; host or cells: HEK-293 cells
Procedure: as §1, §2

Na^+ channel (site 2) = conditions: Na+ channel (site 2) (antagonist radioligand); footnote: Sodium Channel Site2 (Non-selective) Rat Ion Channel Batrachotoxin Mass Spectr. Binding
[2] = biological target: T3, norepinephrine transporter(h) (Homo sapiens, UniProt P23975); experiment: Radioligand binding NE transporter (h) (antagonist radioligand), [^3H]nisoxetine, CHO cells
T3 construct: expressed in transfected cells; host or cells: CHO cells
Procedure: as §1, §2

[3] = Photoabsorption 290-700 nm, molar extinction coefficient (photoliability); assay type: physicochemical; conditions: wavelength of maximal absorption between 290 nm and 700 nm
D1 (h) = biological target: T4, D1 (h) (Homo sapiens, UniProt P21728); experiment: Radioligand binding D1 (h) (antagonist radioligand), [^3H]SCH 23390, CHO cells
T4 construct: expressed in transfected cells; host or cells: CHO cells
Procedure: as §1, §2

CB2 (h) = biological target: T5, CB2 (h) (Homo sapiens, UniProt P34972); experiment: Radioligand binding CB2 (h) (agonist radioligand), [^3H]WIN 55212-2, CHO cells
T5 construct: expressed in transfected cells; host or cells: CHO cells
Procedure: as §1, §2

5-HT2A [4] = biological target: T6, 5-HT2A (Homo sapiens, UniProt P28223); experiment: Calcium flux agonist assay, 293T cells; assay type: cell-based; parameters: expressed in transfected cells; host or cells: Human Embryonic Kidney (293T) cells, transient; conditions: for Emax: HEK-293T, calcium flux, 5-HT2A, normalized to maximum 5-HT response
male C57BL/6J mice = experiment: Mouse head-twitch response (HTR) assay, magnetometer; assay type: in vivo; conditions: i.p.; for HTR (head twitch response), in words: doses up to 30 mpk
5-HT2A [5] = biological target: T6, 5-HT2A; experiment: IP-One HTRF IP-1 accumulation functional assay, 5-HT2A-expressing HEK293; assay type: cell-based; parameters: host or cells: HEK293
Procedure: Methods (5-HT2A and 5-HT2C IP-One Functional Activity Assays): Intracellular accumulation of IP-1 was measured using an IP-One HTRF assay kit (Cat. #62IPAPEJ, Cisbio) at WuXi AppTec Co. Ltd. (Hong Kong) Discovery Biology Unit according to their standard protocols. Briefly, the reference compounds and screening compounds were 3.16-fold serially diluted in 100% DMSO for 10 points using Bravo. 70 nL of compounds were added to the assay plate using Echo555. Added 14 μL/7500 cells/well of 5-HT2A-expressing HEK293 or 5-HT2C-expressing HEK293 to the assay plate and incubate for 60 min at 37° C. Added 3 μL of IP-1 d2 Reagent working solution and 3 μL of IP-1 Tb Cryptate Antibody working solution to all wells. The plates were incubated for 1 hour at room temperature and read for fluorescence at 620 nm and 665 nm on an EnVision Multimode Plate Reader (PerkinElmer). The ratio of the acceptor and donor emission signals (665/620) were calculated for each individual well and substituted into the standard curve to obtain the log concentration of IP level. After converting to the antilog base IP-1, the average background control signal was subtracted from each well and values were normalized to the maximal response of 5-HT at 3 μM (100%). % MAX was calculated by taking the average normalized maximal response for each compound at the highest concentration tested. The data were analyzed using the four-parameter nonlinear regression curve-fitting function in GraphPad Prism 5 (GraphPad Software, San Diego, CA) to generate potency (EC50) values. The represented plots show normalized IP-1 values versus compound concentrations; the corresponding numerical data are parameter estimates for the concentration-response curve using the four-parameter nonlinear regression curve-fitting function in GraphPad Prism 10.

T5 sequence (P34972 whole entry): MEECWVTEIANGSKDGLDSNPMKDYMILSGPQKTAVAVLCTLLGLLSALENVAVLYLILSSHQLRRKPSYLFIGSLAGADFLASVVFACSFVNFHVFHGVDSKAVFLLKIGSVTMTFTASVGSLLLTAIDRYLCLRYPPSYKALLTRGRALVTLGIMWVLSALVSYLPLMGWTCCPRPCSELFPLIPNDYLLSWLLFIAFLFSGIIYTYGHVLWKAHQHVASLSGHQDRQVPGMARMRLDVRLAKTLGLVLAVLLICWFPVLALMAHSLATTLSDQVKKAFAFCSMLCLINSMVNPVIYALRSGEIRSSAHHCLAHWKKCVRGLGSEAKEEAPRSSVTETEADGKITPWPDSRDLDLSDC
T6 sequence (P28223 whole entry, looked up): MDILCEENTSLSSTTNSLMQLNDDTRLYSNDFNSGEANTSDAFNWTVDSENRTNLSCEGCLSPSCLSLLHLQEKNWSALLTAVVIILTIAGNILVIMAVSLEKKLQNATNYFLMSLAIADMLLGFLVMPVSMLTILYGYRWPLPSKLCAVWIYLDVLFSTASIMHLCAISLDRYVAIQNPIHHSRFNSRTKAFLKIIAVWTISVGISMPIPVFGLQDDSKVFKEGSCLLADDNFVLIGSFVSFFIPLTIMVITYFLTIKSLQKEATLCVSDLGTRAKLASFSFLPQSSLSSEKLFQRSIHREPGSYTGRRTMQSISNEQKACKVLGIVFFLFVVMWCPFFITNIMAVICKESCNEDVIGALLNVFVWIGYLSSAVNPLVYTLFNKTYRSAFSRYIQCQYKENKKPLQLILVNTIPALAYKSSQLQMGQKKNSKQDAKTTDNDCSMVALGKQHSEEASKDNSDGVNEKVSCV
T3 sequence (P23975 whole entry): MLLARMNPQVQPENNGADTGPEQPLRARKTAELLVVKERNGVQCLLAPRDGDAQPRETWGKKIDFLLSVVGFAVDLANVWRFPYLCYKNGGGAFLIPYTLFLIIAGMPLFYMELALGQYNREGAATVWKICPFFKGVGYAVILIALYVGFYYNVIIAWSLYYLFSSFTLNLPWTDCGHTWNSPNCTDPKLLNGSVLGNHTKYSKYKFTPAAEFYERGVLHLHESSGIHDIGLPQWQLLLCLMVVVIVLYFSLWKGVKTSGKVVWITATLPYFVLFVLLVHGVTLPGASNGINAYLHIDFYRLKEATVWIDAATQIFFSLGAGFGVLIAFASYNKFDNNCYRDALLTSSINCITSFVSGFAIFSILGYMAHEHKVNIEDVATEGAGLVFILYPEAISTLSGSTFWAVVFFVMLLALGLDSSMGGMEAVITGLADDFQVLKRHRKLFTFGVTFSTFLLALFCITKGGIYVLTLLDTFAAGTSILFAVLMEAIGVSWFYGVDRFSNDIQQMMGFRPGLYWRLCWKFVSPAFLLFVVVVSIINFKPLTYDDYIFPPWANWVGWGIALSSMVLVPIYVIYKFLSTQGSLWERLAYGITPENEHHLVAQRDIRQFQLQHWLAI
T2 sequence (Q12809 whole entry): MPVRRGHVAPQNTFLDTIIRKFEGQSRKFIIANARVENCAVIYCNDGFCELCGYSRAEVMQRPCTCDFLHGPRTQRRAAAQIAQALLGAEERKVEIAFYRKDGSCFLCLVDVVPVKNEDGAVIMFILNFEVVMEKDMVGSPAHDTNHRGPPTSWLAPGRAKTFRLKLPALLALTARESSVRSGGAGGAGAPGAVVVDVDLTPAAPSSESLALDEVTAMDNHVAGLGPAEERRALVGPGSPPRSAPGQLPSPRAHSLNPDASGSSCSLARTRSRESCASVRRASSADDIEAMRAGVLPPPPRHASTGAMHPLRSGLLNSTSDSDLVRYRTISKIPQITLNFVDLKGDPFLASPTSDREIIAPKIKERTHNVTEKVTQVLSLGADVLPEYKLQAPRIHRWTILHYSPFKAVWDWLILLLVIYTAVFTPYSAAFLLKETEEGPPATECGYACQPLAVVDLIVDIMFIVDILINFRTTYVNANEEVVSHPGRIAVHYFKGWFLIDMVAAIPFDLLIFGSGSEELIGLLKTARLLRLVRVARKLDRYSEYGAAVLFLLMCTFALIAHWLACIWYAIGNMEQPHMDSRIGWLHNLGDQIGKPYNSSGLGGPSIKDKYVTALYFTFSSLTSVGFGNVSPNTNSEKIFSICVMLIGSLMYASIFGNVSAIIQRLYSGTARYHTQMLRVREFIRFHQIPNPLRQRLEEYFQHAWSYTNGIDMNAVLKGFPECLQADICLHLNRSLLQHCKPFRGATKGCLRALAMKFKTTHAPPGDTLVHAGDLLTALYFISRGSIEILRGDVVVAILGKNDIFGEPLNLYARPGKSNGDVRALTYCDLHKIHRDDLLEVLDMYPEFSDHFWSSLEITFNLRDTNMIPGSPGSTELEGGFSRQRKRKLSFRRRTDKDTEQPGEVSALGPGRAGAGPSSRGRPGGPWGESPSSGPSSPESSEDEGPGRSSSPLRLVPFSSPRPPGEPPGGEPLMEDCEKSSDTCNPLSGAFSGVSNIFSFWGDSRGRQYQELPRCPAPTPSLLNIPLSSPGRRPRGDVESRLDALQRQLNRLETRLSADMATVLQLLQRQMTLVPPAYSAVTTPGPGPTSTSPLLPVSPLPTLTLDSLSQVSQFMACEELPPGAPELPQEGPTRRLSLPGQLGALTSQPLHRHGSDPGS
T4 sequence (P21728 whole entry): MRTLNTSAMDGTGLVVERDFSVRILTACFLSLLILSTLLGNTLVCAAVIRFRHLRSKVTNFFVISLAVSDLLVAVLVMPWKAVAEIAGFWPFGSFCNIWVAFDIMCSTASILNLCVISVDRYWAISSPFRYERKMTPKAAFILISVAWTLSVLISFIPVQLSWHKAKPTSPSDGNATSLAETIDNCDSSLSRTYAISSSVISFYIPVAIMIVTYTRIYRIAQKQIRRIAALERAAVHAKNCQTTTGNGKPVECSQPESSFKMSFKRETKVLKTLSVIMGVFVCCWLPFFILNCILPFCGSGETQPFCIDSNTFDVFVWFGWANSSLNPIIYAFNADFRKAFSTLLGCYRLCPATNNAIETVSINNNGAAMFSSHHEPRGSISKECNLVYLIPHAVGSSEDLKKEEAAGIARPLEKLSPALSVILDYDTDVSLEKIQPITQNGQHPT

| Compound | Mean Percent Inhibition of Control Specific Binding (alpha2A (h)) | Mean Percent Inhibition of Control Specific Binding [1] | Mean Percent Inhibition of Control Specific Binding (Na^+ channel (site 2)) | Mean Percent Inhibition of Control Specific Binding [2] | MEC [3] | Mean Percent Inhibition of Control Specific Binding (D1 (h)) | Mean Percent Inhibition of Control Specific Binding (CB2 (h)) | EC50 (5-HT2A [4]) | Emax (5-HT2A [4]) | HTR (head twitch response), in words (male C57BL/6J mice) | EC50 (5-HT2A [5]) | ED50 based on HTR counts (male C57BL/6J mice; HTR counts summed over a 30-60 min interval) |
| --- | --- | --- | --- | --- | --- | --- | --- | --- | --- | --- | --- | --- |
| COCc1cc(CCN)c(O)cc1CC(C)C [2CiBu-2OH-5MM, 2-(2-aminoethyl)-5-isobutyl-4-(methoxymethyl)phenol] | 79.4% | 9.7% | 66% | 17.4% | 380.8 L/mol/cm | 4.0% | −6.0% | 55.9 nM | 115% | did not produce meaningful HTR across the tested dose range | – | – |
| COCCc1cc(CCN)c(OC)cc1Br [Compound 2CB-5ME, reference compound] | 73.0% | 8.5% | 46.9% | 11.4% | – | 28.1% | −22.8% | – | – | did not produce statistically significant changes in HTR | 227 nM | – |
| COCc1cc(CCN)c(OC)cc1Br [Compound 2CB-5MM, 2-(4-bromo-2-methoxy-5-(methoxymethyl)phenyl)ethan-1-amine] | 80.2% | 13.9% | 21.6% | 0.2% | 781.9 L/mol/cm | 21.1% | −14.9% | 0.68 nM | 114% | did not elicit a significant HTR at any tested dose | 59.1 nM | – |
| COCc1cc(CCN)c(OC)cc1CC(C)C [Compound 2CiBu-5MM, 2-[4-isobutyl-2-methoxy-5-(methoxymethyl)phenyl]ethanamine] | 88.5% | 4.4% | 70.4% | −5.4% | 283.6 L/mol/cm | −1.4% | 17.8% | 42.2 nM | 111% | subtle suppression of HTR during the first 15 min followed by a rebound in HTR counts during the last 30 min segment; also recorded: HTR counts remained near baseline throughout the observation period; also recorded: overall neutral effect compared to vehicle HTR occurrences | 341 nM | 5.926 mpk |

From patent US12692221B2 (priority 2024, dated 2026)
